According to patent publication US20030237103A1, “Methods and compositions for pharmacological and toxicological evaluation of test agents” (priority 2002, published 2003):

Test system: Panel, parental and outbred (CD-IGS) rat strains
Assay: Clinical chemistry endpoints of gentamicin-treated vs. vehicle rats
Details: for T-test value ALB / T-test value ALP / T-test value ALT / T-test value ANION GAP / T-test value AST / T-test value BICARB / T-test value BUN / T-test value CA / T-test value CHOL / T-test value CREAT / T-test value GGT / T-test value GLOB / T-test value GLU / T-test value K / T-test value NA / T-test value PHOS / T-test value TBIL / T-test value TP / T-test value TRIG: 240 mg/Kg gentamicin vs. vehicle
Excerpt: Percent increase is defined as[(mean drug—mean vehicle control)/mean vehicle control×100] for each strain tested. The number of animals tested in each group is noted below the strain designation in parenthesis as #drug treated animals per #vehicle treated animals.
We sought to maximize the range of genetic susceptibility to the adverse drug effects across the strains.

## gentamicin
120 mg/kg gentamicin, all strains (not shown)
  nephrotoxic phenotypes at the first dose: did not produce a robust set of phenotypes, except in LEW rats
BN rats
  T-test value ALB: 0.028
  T-test value ALP: 0.040
  T-test value ALT: 0.618
  T-test value ANION GAP: 0.369
  T-test value AST: 0.110
  T-test value BICARB: 0.642
  T-test value BUN: 0.003
  T-test value CA: 0.460
  T-test value CHOL: 0.092
  T-test value CREAT: 0.005
  T-test value GGT: 0.121
  T-test value GLOB: 0.517
  T-test value GLU: 0.937
  T-test value K: 0.264
  T-test value NA: 0.036
  T-test value PHOS: 0.021
  T-test value TBIL: 0.040
  T-test value TP: 0.133
  T-test value TRIG: 0.042
BNxF344 rats
  T-test value ALB: 0.089
  T-test value ALP: 0.000
  T-test value ALT: 0.171
  T-test value ANION GAP: 0.770
  T-test value AST: 0.005
  T-test value BICARB: 0.765
  T-test value BUN: 0.000
  T-test value CA: 0.397
  T-test value CHOL: 0.216
  T-test value CREAT: 0.000
  T-test value GLOB: 0.165
  T-test value GLU: 0.434
  T-test value K: 0.899
  T-test value NA: 0.128
  T-test value PHOS: 0.657
  T-test value TBIL: 0.745
  T-test value TP: 0.802
  T-test value TRIG: 0.000
CD-IGS rats
  T-test value ALB: 0.493
  T-test value ALP: 0.312
  T-test value ALT: 0.714
  T-test value ANION GAP: 0.222
  T-test value AST: 0.740
  T-test value BICARB: 0.030
  T-test value BUN: 0.013
  T-test value CA: 0.078
  T-test value CHOL: 0.742
  T-test value CREAT: 0.024
  T-test value GGT: 0.331
  T-test value GLOB: 0.252
  T-test value GLU: 0.104
  T-test value K: 0.229
  T-test value NA: 0.138
  T-test value PHOS: 0.620
  T-test value TBIL: 0.720
  T-test value TP: 0.807
  T-test value TRIG: 0.946
F344 rats
  T-test value ALB: 0.002
  T-test value ALP: 0.017
  T-test value ALT: 0.108
  T-test value ANION GAP: 0.428
  T-test value AST: 0.304
  T-test value BICARB: 0.080
  T-test value BUN: 0.015
  T-test value CA: 0.637
  T-test value CHOL: 0.811
  T-test value CREAT: 0.006
  T-test value GGT: 0.363
  T-test value GLOB: 0.170
  T-test value GLU: 0.169
  T-test value K: 0.287
  T-test value NA: 0.020
  T-test value PHOS: 0.350
  T-test value TBIL: 0.969
  T-test value TP: 0.000
  T-test value TRIG: 0.052
LEW rats
  T-test value ALB: 0.015
  T-test value ALP: 0.419
  T-test value ALT: 0.080
  T-test value ANION GAP: 0.283
  T-test value AST: 0.754
  T-test value BICARB: 0.061
  T-test value BUN: 0.002
  T-test value CA: 0.000
  T-test value CHOL: 0.007
  T-test value CREAT: 0.006
  T-test value GLOB: 0.167
  T-test value GLU: 0.318
  T-test value K: 0.349
  T-test value NA: 0.361
  T-test value PHOS: 0.203
  T-test value TBIL: 0.648
  T-test value TP: 0.102
  T-test value TRIG: 0.405
LEWxBN rats
  T-test value ALB: 0.081
  T-test value ALP: 0.005
  T-test value ALT: 0.293
  T-test value ANION GAP: 0.071
  T-test value AST: 0.417
  T-test value BICARB: 0.076
  T-test value BUN: 0.001
  T-test value CA: 0.000
  T-test value CHOL: 0.533
  T-test value CREAT: 0.002
  T-test value GLOB: 0.419
  T-test value GLU: 0.016
  T-test value K: 0.145
  T-test value NA: 0.955
  T-test value PHOS: 0.431
  T-test value TBIL: 0.060
  T-test value TP: 0.434
  T-test value TRIG: 0.037
LEWxF344 rats
  T-test value ALB: 0.071
  T-test value ALP: 0.144
  T-test value ALT: 0.380
  T-test value ANION GAP: 0.157
  T-test value AST: 0.375
  T-test value BICARB: 0.114
  T-test value BUN: 0.019
  T-test value CA: 0.777
  T-test value CHOL: 0.889
